Reference: ChEMBL document CHEMBL3991601, “The target landscape of clinical kinase drugs” (Science, 2017)
The source made the active and inactive calls. Cut-off read from the data, not from the text of the source, for most assays here: actives have a measured Kd and inactives only a lower limit.

Experiments:
[1] = target: T1, Peroxisomal acyl-coenzyme A oxidase 3 (Homo sapiens, UniProt O15254)
T1 sequence (O15254 whole entry): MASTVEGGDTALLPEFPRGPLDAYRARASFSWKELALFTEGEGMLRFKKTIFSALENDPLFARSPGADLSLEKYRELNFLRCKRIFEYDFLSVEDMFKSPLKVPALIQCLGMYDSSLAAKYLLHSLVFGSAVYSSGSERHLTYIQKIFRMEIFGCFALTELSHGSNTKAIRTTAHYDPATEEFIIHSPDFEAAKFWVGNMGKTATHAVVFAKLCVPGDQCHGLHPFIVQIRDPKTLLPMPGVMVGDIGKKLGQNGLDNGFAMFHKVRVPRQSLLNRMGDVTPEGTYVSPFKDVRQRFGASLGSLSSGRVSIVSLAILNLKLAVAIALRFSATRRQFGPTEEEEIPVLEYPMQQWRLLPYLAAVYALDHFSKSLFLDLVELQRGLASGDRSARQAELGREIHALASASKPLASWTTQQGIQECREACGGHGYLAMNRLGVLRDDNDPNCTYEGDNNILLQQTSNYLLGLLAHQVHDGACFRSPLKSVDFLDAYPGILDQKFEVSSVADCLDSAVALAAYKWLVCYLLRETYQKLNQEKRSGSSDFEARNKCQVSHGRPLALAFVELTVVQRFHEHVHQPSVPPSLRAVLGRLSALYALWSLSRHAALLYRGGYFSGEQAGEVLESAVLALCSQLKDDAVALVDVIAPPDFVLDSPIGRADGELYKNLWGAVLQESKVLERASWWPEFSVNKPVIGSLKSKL

[2] = target: Cyclin-dependent kinase 12 (Homo sapiens, UniProt Q9NYV4)
[3] = target: Chromodomain-helicase-DNA-binding protein 4 (Homo sapiens, UniProt Q14839)
Ephrin type-A receptor 2 = Ephrin type-A receptor 2 (Homo sapiens, UniProt P29317)
Sequence of Ephrin type-A receptor 2 (P29317 whole entry): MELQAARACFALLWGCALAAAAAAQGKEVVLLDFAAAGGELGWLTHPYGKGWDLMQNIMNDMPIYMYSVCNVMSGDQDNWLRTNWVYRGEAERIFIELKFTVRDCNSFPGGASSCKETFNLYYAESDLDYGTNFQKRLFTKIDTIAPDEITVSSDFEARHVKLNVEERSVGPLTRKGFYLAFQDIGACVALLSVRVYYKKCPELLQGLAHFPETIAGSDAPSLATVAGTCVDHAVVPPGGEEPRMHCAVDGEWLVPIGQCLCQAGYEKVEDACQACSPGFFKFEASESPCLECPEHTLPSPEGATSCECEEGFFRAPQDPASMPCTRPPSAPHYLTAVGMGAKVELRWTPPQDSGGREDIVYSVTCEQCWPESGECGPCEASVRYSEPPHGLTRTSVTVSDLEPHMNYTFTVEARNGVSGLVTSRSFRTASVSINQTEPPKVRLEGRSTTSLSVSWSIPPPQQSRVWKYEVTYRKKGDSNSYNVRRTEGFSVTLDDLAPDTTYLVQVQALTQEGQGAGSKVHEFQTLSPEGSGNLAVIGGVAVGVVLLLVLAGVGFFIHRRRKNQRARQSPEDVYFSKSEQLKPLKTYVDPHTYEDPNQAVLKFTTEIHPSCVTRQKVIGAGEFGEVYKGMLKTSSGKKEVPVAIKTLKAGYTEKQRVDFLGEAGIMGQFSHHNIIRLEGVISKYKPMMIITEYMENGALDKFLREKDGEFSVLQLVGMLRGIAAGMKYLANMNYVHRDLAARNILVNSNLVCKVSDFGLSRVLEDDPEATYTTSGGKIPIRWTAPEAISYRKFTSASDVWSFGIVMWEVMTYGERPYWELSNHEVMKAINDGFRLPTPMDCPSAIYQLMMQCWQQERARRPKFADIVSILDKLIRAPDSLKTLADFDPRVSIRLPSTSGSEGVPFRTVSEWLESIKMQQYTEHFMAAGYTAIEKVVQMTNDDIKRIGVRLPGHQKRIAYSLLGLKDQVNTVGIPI

[4] = target: Fibroblast growth factor receptor 1 (Homo sapiens, UniProt P11362)
Sequence of Fibroblast growth factor receptor 1 (P11362 whole entry): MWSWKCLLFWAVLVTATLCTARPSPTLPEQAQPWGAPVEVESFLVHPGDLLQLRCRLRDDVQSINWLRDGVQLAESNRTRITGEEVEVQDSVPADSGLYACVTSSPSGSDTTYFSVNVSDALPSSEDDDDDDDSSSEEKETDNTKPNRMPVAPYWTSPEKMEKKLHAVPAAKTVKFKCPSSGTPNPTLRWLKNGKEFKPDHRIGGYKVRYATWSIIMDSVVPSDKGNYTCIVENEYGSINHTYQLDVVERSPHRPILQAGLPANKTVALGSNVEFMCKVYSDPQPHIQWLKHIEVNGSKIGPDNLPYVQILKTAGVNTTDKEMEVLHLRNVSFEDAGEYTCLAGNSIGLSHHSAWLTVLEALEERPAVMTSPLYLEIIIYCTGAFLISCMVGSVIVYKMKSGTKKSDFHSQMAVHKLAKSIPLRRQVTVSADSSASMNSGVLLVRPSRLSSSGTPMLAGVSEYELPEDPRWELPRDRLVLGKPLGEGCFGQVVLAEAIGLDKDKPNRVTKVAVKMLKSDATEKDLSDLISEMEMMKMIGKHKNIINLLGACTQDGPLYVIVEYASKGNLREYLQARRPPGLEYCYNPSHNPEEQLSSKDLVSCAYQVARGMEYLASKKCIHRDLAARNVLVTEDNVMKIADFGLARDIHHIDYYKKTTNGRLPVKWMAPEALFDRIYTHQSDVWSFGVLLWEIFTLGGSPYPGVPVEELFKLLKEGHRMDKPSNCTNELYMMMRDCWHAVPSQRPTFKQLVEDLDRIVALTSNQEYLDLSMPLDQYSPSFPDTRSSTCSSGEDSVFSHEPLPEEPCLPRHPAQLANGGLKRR

[5] = target: Tyrosine-protein kinase FRK (Homo sapiens, UniProt P42685)
Sequence of Tyrosine-protein kinase FRK (P42685 whole entry, the tested form may be a part): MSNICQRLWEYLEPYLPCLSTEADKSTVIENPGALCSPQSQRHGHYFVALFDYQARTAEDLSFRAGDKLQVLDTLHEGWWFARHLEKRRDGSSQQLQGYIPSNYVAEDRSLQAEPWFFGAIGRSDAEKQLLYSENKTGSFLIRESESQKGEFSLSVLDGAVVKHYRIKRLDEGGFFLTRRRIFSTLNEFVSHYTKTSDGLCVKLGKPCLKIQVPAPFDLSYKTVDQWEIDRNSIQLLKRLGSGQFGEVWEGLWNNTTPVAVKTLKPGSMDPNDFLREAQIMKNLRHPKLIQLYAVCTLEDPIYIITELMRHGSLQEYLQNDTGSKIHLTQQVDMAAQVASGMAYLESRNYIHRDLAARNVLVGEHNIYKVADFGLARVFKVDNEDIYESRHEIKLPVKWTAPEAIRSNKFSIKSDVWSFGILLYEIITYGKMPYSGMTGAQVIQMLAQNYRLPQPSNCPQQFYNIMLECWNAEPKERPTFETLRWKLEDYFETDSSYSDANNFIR

LIM domain kinase 2 = LIM domain kinase 2 (Homo sapiens, UniProt P53671)
[6] = target: Mitogen-activated protein kinase kinase kinase kinase 1 (Homo sapiens, UniProt Q92918)
Sequence of Mitogen-activated protein kinase kinase kinase kinase 1 (Q92918 whole entry): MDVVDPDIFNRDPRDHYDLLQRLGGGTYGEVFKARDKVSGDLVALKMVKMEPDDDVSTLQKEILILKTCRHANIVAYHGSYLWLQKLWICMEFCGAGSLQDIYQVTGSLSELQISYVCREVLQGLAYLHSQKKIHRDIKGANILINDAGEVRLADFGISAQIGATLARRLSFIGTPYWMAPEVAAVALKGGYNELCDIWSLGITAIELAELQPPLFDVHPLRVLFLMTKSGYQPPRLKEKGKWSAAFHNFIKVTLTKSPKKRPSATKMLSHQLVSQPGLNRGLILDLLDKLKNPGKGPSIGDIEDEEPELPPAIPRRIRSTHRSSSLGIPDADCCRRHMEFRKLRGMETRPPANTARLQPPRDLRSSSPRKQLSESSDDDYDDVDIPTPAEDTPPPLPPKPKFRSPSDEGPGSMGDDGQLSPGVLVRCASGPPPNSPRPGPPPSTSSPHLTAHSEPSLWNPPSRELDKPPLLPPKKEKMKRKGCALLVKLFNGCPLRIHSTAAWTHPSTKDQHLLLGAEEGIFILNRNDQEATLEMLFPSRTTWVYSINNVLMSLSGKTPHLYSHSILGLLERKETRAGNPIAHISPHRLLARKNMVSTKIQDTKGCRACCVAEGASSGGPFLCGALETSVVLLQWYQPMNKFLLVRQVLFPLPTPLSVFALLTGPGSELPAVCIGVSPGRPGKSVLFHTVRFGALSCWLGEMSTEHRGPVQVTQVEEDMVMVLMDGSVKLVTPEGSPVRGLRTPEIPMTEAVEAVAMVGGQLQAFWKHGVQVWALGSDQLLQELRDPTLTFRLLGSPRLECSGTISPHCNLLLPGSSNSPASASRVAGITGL

Midasin = Midasin (Homo sapiens, UniProt Q9NU22)
[7] = target: T2, Membrane-associated tyrosine- and threonine-specific cdc2-inhibitory kinase (Homo sapiens, UniProt Q99640)
T2 sequence (Q99640 whole entry): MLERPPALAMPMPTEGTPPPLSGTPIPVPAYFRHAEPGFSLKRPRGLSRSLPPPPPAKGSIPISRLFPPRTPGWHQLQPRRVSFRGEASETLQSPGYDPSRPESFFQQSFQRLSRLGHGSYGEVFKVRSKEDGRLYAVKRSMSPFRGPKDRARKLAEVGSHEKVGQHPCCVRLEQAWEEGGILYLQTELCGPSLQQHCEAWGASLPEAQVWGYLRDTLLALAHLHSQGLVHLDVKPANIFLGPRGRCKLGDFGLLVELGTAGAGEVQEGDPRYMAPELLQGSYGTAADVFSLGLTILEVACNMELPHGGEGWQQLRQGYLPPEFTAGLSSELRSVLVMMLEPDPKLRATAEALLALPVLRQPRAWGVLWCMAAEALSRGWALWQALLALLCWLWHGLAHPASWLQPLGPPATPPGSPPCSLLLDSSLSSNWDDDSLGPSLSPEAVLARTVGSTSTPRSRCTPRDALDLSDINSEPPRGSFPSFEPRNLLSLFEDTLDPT

[8] = target: T3, Glycogen phosphorylase, brain form (Homo sapiens, UniProt P11216)
T3 sequence (P11216 whole entry): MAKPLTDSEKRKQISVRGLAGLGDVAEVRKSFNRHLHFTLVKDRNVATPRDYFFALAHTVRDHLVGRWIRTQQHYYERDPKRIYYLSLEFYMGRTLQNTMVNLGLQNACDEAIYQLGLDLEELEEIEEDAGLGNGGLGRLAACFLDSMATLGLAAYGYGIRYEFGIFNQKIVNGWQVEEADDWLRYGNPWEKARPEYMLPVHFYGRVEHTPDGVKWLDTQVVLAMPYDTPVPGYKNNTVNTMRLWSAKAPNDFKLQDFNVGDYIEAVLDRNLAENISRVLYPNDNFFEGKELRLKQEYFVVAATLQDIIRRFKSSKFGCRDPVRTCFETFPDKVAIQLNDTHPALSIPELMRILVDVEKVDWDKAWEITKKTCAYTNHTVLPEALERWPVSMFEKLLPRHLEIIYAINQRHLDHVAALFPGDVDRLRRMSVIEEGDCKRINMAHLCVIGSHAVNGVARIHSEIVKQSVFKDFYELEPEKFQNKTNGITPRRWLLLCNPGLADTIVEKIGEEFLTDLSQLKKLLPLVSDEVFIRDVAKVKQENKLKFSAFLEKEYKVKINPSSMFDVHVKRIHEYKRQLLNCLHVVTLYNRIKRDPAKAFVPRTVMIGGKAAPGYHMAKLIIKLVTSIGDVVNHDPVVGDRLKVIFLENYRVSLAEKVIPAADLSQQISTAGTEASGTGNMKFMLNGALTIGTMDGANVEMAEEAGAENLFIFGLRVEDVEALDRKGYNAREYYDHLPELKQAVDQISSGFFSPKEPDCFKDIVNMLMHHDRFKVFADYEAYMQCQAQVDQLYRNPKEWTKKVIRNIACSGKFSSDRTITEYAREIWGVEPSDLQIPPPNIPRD

[9] = target: Serine/threonine-protein kinase 26 (Homo sapiens, UniProt Q9P289)
Sequence of Serine/threonine-protein kinase 26 (Q9P289 whole entry): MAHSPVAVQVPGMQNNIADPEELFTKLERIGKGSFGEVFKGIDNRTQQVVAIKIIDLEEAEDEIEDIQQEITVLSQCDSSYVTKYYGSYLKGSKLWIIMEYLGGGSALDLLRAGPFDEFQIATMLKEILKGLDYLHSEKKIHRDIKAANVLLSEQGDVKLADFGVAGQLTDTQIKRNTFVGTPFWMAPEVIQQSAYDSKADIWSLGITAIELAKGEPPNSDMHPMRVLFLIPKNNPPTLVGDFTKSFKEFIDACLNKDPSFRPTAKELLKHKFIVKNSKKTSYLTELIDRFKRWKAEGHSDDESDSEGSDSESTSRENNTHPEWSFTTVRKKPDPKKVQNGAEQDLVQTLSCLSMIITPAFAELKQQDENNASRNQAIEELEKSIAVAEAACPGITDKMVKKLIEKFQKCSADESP

[10] = target: Non-receptor tyrosine-protein kinase TYK2 (Homo sapiens, UniProt P29597)
Sequence of Non-receptor tyrosine-protein kinase TYK2 (P29597 whole entry): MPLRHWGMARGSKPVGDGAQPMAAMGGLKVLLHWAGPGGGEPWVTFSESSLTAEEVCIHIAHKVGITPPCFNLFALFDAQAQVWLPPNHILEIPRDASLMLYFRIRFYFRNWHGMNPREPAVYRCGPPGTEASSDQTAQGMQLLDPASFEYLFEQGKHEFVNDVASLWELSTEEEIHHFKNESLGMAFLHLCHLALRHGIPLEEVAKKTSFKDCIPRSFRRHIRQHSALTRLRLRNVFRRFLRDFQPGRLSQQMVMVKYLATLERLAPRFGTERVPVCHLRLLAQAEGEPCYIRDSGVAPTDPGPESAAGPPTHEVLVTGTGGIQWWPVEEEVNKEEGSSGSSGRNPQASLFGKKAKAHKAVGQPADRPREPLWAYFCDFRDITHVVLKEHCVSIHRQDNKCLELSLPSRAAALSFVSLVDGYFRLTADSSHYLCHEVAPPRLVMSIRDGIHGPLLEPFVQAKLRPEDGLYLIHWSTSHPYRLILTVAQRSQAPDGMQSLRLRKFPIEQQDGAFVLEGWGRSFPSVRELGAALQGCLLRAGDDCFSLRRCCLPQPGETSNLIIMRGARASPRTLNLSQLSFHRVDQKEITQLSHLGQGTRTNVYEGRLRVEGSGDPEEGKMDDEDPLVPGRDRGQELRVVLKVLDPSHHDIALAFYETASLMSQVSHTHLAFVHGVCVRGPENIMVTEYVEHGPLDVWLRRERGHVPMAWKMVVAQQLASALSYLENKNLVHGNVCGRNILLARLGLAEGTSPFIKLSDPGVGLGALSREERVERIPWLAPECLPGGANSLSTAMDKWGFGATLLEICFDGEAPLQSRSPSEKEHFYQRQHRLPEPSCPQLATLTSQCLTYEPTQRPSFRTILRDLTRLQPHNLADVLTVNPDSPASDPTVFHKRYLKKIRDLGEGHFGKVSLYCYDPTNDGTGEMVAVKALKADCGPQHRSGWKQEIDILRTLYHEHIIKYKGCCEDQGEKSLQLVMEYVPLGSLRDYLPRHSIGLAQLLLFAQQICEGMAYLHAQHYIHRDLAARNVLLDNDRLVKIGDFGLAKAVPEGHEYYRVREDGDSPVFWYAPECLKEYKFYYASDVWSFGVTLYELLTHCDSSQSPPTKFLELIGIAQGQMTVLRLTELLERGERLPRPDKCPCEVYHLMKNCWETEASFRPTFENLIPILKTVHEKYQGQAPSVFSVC
Note: in the data inactive means no Kd found up to 30 µM.

Compound | Kd [1] | Kd [2] | Kd [3] | Kd (Ephrin type-A receptor 2) | Kd [4] | Kd [5] | Kd (LIM domain kinase 2) | Kd [6] | Kd [7] | Kd [8] | Kd [9] | Kd [10] | Kd (Midasin)
Cn1cc(-c2[nH]c3cc(NC(=O)[C@H](N)C4CCCCC4)cc4c3c2C=NNC4=O)cn1 | > 30 µM (inactive) | > 30 µM (inactive) | > 30 µM (inactive) | > 30 µM (inactive) | 0.192 µM (active) | > 30 µM (inactive) | 0.205 µM (active) | > 30 µM (inactive) | > 30 µM (inactive) | > 30 µM (inactive) | > 30 µM (inactive) | > 30 µM (inactive) | > 30 µM (inactive)
Cc1c(NC(=O)OC[C@@H]2COCCN2)cn2ncnc(Nc3ccc4c(cnn4Cc4cccc(F)c4)c3)c12 [AC-480] | > 30 µM (inactive) | > 30 µM (inactive) | > 30 µM (inactive) | > 30 µM (inactive) | > 30 µM (inactive) | > 30 µM (inactive) | > 30 µM (inactive) | > 30 µM (inactive) | > 30 µM (inactive) | > 30 µM (inactive) | > 30 µM (inactive) | > 30 µM (inactive) | > 30 µM (inactive)
CC1(COc2ccc3c(c2)ncn3-c2ccc3cccc(N4CCC(N)CC4)c3n2)COC1 [CRENOLANIB] | > 30 µM (inactive) | > 30 µM (inactive) | – | > 30 µM (inactive) | > 30 µM (inactive) | > 30 µM (inactive) | > 30 µM (inactive) | > 30 µM (inactive) | > 30 µM (inactive) | > 30 µM (inactive) | 0.013 µM (active) | > 30 µM (inactive) | > 30 µM (inactive)
CCc1nc(C(N)=O)c(Nc2ccc(N3CCC(N4CCN(C)CC4)CC3)c(OC)c2)nc1NC1CCOCC1 [GILTERITINIB] | > 30 µM (inactive) | > 30 µM (inactive) | > 30 µM (inactive) | > 30 µM (inactive) | > 30 µM (inactive) | > 30 µM (inactive) | > 30 µM (inactive) | – | > 30 µM (inactive) | > 30 µM (inactive) | 1.14 µM (active) | > 30 µM (inactive) | > 30 µM (inactive)
COc1cc(F)c(F)c(Nc2ccc(I)cc2F)c1NS(=O)(=O)C1(C[C@H](O)CO)CC1 [REFAMETINIB] | > 30 µM (inactive) | > 30 µM (inactive) | – | > 30 µM (inactive) | > 30 µM (inactive) | > 30 µM (inactive) | > 30 µM (inactive) | > 30 µM (inactive) | > 30 µM (inactive) | > 30 µM (inactive) | > 30 µM (inactive) | > 30 µM (inactive) | > 30 µM (inactive)
C=CCN(/C=C1/C(=O)O[C@H](COC)[C@@]2(C)C1=C(O)C(=O)C1=C2[C@H](OC(C)=O)C[C@]2(C)C(=O)CC[C@@H]12)CC=C [SONOLISIB] | > 30 µM (inactive) | > 30 µM (inactive) | – | > 30 µM (inactive) | > 30 µM (inactive) | > 30 µM (inactive) | > 30 µM (inactive) | > 30 µM (inactive) | > 30 µM (inactive) | > 30 µM (inactive) | > 30 µM (inactive) | > 30 µM (inactive) | > 30 µM (inactive)

More lines, main results first:

Kd [1] | Kd [2] | Kd [3] | Kd (Ephrin type-A receptor 2) | Kd [4] | Kd [5] | Kd (LIM domain kinase 2) | Kd [6] | Kd [7] | Kd [8] | Kd [9] | Kd [10] | Compound | Kd (Midasin)
> 30 µM (inactive) | > 30 µM (inactive) | > 30 µM (inactive) | > 30 µM (inactive) | > 30 µM (inactive) | > 30 µM (inactive) | > 30 µM (inactive) | > 30 µM (inactive) | > 30 µM (inactive) | > 30 µM (inactive) | > 30 µM (inactive) | > 30 µM (inactive) | O=c1[nH]c([C@@H]2CCCN2)nc2c1oc1ccc(Cl)cc12 | > 30 µM (inactive)
> 30 µM (inactive) | > 30 µM (inactive) | > 30 µM (inactive) | > 30 µM (inactive) | > 30 µM (inactive) | > 30 µM (inactive) | > 30 µM (inactive) | > 30 µM (inactive) | > 30 µM (inactive) | > 30 µM (inactive) | > 30 µM (inactive) | > 30 µM (inactive) | CCN1CCN(Cc2ccc(Nc3ncc(F)c(-c4cc(F)c5nc(C)n(C(C)C)c5c4)n3)nc2)CC1 [ABEMACICLIB] | > 30 µM (inactive)
2.6 µM (active) | > 30 µM (inactive) | > 30 µM (inactive) | > 30 µM (inactive) | > 30 µM (inactive) | > 30 µM (inactive) | > 30 µM (inactive) | > 30 µM (inactive) | > 30 µM (inactive) | > 30 µM (inactive) | > 30 µM (inactive) | > 30 µM (inactive) | CCc1cc2c(cc1N1CCC(N3CCOCC3)CC1)C(C)(C)c1[nH]c3cc(C#N)ccc3c1C2=O [ALECTINIB] | > 30 µM (inactive)
> 30 µM (inactive) | > 30 µM (inactive) | > 30 µM (inactive) | > 30 µM (inactive) | > 30 µM (inactive) | > 30 µM (inactive) | > 30 µM (inactive) | > 30 µM (inactive) | > 30 µM (inactive) | > 30 µM (inactive) | > 30 µM (inactive) | > 30 µM (inactive) | O=C(NOC[C@H](O)CO)c1ccc(F)c(F)c1Nc1ccc(I)cc1F [MIRDAMETINIB] | –
> 30 µM (inactive) | > 30 µM (inactive) | > 30 µM (inactive) | > 30 µM (inactive) | > 30 µM (inactive) | > 30 µM (inactive) | > 30 µM (inactive) | > 30 µM (inactive) | > 30 µM (inactive) | > 30 µM (inactive) | > 30 µM (inactive) | > 30 µM (inactive) | CNC(=O)c1cc(COc2nnc(Nc3ccc(Cl)cc3)c3ccoc23)ccn1 [TELATINIB] | –
> 30 µM (inactive) | > 30 µM (inactive) | – | 1.19 µM (active) | > 30 µM (inactive) | > 30 µM (inactive) | > 30 µM (inactive) | – | > 30 µM (inactive) | > 30 µM (inactive) | > 30 µM (inactive) | > 30 µM (inactive) | Cc1cc(-c2cc(OC(=O)c3ccccc3)ccc2Cl)cc2nnc(Nc3ccc(OCCN4CCCC4)cc3)nc12 [TG100-801] | > 30 µM (inactive)
> 30 µM (inactive) | > 30 µM (inactive) | – | > 30 µM (inactive) | > 30 µM (inactive) | > 30 µM (inactive) | > 30 µM (inactive) | > 30 µM (inactive) | > 30 µM (inactive) | > 30 µM (inactive) | > 30 µM (inactive) | > 30 µM (inactive) | NC(=O)c1ccc(N(C(N)=O)c2c(F)cccc2F)nc1-c1ccc(F)cc1F [VX-702] | > 30 µM (inactive)
